Experimental data taken from PMC4685510, “A Cell Biologist’s Field Guide to Aurora Kinase Inhibitors” (Frontiers in Oncology, 2015).

Tests used:
Assay in all cases: biochemical
Format in all cases: biochemical
[1] = biological target: 363 human kinases (including Aurora A/B/C) (Homo sapiens, UniProt P51812); settings: RSK2; for remaining activity at 0.1 µM: 100 nM; for remaining activity at 0.1 µM / remaining activity at 0.5 µM: read-out: % Enzyme Activity (relative to DMSO controls)
Excerpt: (§1) However, the Aurora A/B selectivity ratios derived from our in vitro and in vivo data can be compared to prioritize inhibitors.

[2] = biological target: 363 human kinases (including Aurora A/B/C) (Homo sapiens, UniProt Q15418); settings: RSK1; for remaining activity at 0.1 µM: 100 nM; for remaining activity at 0.1 µM / remaining activity at 0.5 µM: read-out: % Enzyme Activity (relative to DMSO controls)
Excerpt: as §1

[3] = biological target: 363 human kinases (including Aurora A/B/C) (Homo sapiens, UniProt Q04912); settings: RON/MST1R; for remaining activity at 0.1 µM: 100 nM; for remaining activity at 0.1 µM / remaining activity at 0.5 µM: read-out: % Enzyme Activity (relative to DMSO controls)
Excerpt: as §1

[4] = biological target: 363 human kinases (including Aurora A/B/C) (Homo sapiens, UniProt P30291); settings: WEE1; for remaining activity at 0.1 µM: 100 nM; for remaining activity at 0.1 µM / remaining activity at 0.5 µM: read-out: % Enzyme Activity (relative to DMSO controls)
Excerpt: as §1

[5] = biological target: 363 human kinases (including Aurora A/B/C) (Homo sapiens, UniProt Q9H4B4); settings: PLK3; for remaining activity at 0.1 µM: 100 nM; for remaining activity at 0.1 µM / remaining activity at 0.5 µM: read-out: % Enzyme Activity (relative to DMSO controls)
Excerpt: as §1

[6] = biological target: 363 human kinases (including Aurora A/B/C) (Homo sapiens, UniProt P06213); settings: IR; for remaining activity at 0.1 µM: 100 nM; for remaining activity at 0.1 µM / remaining activity at 0.5 µM: read-out: % Enzyme Activity (relative to DMSO controls)
Excerpt: as §1

[7] = biological target: T1, 363 human kinases (including Aurora A/B/C) (Homo sapiens, UniProt Q56UN5); settings: YSK4/MAP3K19; for remaining activity at 0.1 µM: 100 nM; for remaining activity at 0.1 µM / remaining activity at 0.5 µM: read-out: % Enzyme Activity (relative to DMSO controls)
T1 sequence (Q56UN5 1-1328): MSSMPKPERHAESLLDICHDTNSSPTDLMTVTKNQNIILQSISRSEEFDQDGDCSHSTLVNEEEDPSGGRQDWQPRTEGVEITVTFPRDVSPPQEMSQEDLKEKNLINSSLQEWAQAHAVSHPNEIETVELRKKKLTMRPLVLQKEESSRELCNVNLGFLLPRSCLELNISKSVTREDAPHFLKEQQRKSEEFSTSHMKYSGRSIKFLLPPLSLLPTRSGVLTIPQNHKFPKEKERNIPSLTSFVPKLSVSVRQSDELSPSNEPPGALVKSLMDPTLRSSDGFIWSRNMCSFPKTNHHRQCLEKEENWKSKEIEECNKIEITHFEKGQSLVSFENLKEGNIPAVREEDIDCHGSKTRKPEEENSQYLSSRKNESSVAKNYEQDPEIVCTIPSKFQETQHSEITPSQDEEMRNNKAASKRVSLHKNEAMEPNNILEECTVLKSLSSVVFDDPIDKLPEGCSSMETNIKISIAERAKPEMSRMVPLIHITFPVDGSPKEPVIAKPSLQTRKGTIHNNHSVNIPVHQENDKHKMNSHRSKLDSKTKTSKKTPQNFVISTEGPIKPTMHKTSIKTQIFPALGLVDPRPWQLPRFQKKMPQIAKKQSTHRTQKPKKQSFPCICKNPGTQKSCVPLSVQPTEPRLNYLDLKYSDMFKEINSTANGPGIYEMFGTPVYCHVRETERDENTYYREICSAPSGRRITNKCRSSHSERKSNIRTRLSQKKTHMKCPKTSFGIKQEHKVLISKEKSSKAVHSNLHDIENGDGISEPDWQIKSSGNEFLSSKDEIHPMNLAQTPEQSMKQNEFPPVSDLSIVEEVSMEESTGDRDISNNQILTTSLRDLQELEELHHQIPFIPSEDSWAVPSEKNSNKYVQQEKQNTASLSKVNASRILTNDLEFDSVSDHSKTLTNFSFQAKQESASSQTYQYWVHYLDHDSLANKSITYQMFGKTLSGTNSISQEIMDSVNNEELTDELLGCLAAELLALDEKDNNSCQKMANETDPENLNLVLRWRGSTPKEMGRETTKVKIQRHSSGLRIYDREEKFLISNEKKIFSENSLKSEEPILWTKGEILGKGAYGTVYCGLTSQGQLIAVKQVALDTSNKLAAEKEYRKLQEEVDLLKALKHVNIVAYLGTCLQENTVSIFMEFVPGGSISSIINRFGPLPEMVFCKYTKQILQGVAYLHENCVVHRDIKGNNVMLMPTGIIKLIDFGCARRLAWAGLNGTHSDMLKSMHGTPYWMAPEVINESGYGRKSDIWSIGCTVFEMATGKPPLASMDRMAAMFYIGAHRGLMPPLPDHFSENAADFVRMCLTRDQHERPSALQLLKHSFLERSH
Excerpt: as §1

[8] = biological target: 363 human kinases (including Aurora A/B/C) (Homo sapiens, UniProt Q13233); settings: MEKK1; for remaining activity at 0.1 µM: 100 nM; for remaining activity at 0.1 µM / remaining activity at 0.5 µM: read-out: % Enzyme Activity (relative to DMSO controls)
Excerpt: as §1

[9] = biological target: 363 human kinases (including Aurora A/B/C) (Homo sapiens, UniProt P29317); settings: EPHA2, [ATP] 50 µM; for remaining activity at 0.1 µM: 100 nM; for remaining activity at 0.1 µM / remaining activity at 0.5 µM: read-out: % Enzyme Activity (relative to DMSO controls)
Excerpt: as §1

[10] = biological target: T2, 363 human kinases (including Aurora A/B/C) (Homo sapiens, UniProt P51817); settings: PRKX; for remaining activity at 0.1 µM: 100 nM; for remaining activity at 0.1 µM / remaining activity at 0.5 µM: read-out: % Enzyme Activity (relative to DMSO controls)
T2 sequence (P51817 1-358): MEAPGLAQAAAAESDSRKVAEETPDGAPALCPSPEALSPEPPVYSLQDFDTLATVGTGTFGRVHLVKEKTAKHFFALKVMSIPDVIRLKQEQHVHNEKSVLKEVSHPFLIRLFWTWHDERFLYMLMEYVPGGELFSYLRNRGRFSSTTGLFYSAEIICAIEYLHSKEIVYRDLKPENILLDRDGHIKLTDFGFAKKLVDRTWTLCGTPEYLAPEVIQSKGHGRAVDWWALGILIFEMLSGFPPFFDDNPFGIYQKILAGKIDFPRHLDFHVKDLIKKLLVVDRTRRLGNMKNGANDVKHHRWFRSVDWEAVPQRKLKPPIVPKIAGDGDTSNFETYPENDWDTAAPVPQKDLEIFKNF
Excerpt: as §1

[11] = biological target: 363 human kinases (including Aurora A/B/C) (Homo sapiens, UniProt Q92918); settings: HPK1/MAP4K1; for remaining activity at 0.1 µM: 100 nM; for remaining activity at 0.1 µM / remaining activity at 0.5 µM: read-out: % Enzyme Activity (relative to DMSO controls)
Excerpt: as §1

363 human kinases (including Aurora A/B/C) (Homo sapiens, UniProt Q15418), sequence (Q15418 whole entry): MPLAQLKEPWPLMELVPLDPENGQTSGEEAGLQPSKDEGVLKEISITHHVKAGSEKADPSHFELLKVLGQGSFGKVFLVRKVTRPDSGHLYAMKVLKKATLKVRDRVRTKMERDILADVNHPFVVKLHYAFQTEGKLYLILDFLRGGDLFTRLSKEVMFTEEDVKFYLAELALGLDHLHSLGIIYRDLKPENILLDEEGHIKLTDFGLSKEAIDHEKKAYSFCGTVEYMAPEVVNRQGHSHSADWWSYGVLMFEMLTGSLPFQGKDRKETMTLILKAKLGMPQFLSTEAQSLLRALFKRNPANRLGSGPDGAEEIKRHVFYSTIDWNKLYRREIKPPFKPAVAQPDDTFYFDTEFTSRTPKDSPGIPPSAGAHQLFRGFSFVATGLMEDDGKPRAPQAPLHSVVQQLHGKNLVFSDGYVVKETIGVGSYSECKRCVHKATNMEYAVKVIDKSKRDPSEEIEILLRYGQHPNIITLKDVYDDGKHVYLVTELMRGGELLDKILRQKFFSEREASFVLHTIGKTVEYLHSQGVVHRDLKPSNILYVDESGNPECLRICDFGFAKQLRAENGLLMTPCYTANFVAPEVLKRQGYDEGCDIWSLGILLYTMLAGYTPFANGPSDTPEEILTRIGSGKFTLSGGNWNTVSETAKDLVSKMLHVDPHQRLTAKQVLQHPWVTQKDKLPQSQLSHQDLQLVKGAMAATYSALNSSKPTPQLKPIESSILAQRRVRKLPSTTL
363 human kinases (including Aurora A/B/C) (Homo sapiens, UniProt P30291), sequence (P30291 whole entry): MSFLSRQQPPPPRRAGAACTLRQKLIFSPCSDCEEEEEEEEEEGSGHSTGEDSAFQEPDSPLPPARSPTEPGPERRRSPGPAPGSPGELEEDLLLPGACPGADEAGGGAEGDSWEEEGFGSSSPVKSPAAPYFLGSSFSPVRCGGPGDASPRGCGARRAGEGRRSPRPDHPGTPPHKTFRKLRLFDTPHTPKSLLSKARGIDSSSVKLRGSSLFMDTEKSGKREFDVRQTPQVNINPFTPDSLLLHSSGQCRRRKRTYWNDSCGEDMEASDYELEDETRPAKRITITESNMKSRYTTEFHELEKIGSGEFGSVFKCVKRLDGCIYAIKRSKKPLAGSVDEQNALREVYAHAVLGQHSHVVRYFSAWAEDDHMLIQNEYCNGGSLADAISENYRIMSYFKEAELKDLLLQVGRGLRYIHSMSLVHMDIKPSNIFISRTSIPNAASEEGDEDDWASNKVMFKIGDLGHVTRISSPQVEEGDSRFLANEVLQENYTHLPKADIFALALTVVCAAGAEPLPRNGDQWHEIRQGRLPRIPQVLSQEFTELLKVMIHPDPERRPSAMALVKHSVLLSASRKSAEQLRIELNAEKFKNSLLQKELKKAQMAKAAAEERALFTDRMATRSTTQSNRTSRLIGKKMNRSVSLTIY
363 human kinases (including Aurora A/B/C) (Homo sapiens, UniProt P51812), sequence (P51812 whole entry): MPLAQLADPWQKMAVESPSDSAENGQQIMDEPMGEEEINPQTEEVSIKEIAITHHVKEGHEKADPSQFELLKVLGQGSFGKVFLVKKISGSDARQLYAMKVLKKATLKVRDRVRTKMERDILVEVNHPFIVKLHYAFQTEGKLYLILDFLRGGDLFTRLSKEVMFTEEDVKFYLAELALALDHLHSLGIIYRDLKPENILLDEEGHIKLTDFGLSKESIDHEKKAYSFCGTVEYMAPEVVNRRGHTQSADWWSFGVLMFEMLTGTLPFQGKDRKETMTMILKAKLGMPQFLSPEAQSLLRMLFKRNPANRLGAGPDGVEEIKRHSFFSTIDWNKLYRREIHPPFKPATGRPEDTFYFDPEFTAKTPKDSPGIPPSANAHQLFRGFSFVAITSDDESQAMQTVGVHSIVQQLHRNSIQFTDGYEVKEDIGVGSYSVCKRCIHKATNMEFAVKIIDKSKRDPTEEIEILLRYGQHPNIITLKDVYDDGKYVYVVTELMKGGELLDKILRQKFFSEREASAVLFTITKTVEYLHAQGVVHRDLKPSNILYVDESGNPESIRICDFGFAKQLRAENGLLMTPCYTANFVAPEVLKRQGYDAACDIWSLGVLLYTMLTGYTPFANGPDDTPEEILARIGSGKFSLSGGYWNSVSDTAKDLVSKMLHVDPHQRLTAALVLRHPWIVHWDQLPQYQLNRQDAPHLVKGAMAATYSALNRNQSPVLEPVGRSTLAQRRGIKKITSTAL
363 human kinases (including Aurora A/B/C) (Homo sapiens, UniProt P29317), sequence (P29317 24-976): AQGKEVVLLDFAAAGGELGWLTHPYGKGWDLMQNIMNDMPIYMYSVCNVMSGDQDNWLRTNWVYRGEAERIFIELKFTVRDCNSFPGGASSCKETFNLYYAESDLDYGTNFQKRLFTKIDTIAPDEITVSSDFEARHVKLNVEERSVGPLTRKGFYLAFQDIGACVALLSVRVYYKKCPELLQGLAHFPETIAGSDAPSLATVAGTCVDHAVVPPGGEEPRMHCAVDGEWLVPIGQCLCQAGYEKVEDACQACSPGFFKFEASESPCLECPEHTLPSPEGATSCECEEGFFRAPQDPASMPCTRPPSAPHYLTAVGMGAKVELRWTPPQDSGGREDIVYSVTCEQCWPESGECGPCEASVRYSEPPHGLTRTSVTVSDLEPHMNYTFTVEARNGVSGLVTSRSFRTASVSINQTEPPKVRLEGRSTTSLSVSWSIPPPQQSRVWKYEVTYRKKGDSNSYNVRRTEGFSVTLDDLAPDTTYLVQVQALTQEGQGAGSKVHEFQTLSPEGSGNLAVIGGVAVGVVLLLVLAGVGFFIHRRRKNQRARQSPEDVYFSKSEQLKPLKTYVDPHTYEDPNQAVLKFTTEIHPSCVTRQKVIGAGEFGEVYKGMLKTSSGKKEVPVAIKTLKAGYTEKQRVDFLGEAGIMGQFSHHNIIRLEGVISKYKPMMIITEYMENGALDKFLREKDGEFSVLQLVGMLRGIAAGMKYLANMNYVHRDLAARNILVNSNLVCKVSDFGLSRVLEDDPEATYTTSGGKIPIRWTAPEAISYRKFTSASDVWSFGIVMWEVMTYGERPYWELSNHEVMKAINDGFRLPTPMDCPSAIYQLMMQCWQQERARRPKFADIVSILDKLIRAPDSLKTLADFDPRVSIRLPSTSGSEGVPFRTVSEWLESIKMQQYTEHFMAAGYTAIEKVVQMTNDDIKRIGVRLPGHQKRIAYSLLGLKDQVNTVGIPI
363 human kinases (including Aurora A/B/C) (Homo sapiens, UniProt Q9H4B4), sequence (Q9H4B4 whole entry): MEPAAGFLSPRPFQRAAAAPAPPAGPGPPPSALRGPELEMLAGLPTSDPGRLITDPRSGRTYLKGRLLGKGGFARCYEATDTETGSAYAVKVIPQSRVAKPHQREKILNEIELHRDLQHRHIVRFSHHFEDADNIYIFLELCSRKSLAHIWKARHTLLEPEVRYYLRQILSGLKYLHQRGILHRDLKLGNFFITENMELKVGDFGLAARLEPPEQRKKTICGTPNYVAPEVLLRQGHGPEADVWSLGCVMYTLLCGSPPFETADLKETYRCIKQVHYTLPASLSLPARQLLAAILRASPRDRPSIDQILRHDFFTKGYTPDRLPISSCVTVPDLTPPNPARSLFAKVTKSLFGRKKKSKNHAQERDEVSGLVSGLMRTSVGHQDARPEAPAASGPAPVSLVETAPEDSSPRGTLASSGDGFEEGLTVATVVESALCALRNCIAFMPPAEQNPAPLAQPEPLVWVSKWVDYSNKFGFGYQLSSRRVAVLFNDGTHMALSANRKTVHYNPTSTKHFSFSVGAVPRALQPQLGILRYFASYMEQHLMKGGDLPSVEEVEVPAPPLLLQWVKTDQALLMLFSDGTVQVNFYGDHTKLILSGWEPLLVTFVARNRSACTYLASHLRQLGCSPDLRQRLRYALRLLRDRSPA
363 human kinases (including Aurora A/B/C) (Homo sapiens, UniProt P06213), sequence (P06213 28-1382): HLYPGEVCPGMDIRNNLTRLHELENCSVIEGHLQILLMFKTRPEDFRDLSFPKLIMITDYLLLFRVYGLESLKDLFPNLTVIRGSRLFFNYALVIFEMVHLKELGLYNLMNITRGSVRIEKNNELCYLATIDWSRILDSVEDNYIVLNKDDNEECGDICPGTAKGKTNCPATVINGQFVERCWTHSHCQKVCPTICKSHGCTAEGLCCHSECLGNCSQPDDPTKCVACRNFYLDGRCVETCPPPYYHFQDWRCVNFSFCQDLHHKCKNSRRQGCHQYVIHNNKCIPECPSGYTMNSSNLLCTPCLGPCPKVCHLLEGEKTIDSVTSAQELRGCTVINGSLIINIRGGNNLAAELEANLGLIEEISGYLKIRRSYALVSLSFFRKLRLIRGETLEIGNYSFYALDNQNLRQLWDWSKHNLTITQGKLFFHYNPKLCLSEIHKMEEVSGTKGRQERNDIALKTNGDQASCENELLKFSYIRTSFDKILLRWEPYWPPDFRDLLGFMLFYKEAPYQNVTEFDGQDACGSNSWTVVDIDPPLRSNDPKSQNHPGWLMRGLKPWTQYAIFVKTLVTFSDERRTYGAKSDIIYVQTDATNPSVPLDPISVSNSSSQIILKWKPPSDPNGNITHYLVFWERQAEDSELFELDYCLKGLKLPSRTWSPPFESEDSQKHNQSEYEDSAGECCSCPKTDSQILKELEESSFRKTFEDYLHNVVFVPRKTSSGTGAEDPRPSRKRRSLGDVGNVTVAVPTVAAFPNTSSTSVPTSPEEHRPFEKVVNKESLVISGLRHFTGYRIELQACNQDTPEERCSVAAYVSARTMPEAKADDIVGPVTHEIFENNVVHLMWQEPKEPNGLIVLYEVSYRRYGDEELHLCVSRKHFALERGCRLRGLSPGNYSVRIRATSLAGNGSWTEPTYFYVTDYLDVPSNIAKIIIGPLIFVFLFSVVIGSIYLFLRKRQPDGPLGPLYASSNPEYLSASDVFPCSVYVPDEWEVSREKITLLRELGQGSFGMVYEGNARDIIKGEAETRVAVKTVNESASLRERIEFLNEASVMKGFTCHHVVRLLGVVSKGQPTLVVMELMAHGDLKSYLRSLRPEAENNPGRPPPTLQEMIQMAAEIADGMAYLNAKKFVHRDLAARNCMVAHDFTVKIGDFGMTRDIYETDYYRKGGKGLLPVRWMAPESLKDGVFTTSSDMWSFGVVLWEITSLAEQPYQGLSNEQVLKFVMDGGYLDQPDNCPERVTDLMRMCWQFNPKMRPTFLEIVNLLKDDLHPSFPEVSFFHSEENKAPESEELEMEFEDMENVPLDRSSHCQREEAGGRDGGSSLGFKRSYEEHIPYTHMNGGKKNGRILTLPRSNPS

SMILES | remaining activity at 0.1 µM [1] [%] | remaining activity at 0.1 µM [2] [%] | remaining activity at 0.1 µM [3] [%] | remaining activity at 0.1 µM [4] [%] | remaining activity at 0.1 µM [5] [%] | remaining activity at 0.1 µM [6] [%] | remaining activity at 0.1 µM [7] [%] | remaining activity at 0.1 µM [8] [%] | remaining activity at 0.1 µM [9] [%] | remaining activity at 0.1 µM [10] [%] | remaining activity at 0.1 µM [11] [%] | remaining activity at 0.5 µM ([1]; 500 nM) [%] | remaining activity at 0.5 µM ([2]; 500 nM) [%] | remaining activity at 0.5 µM ([3]; 500 nM) [%] | remaining activity at 0.5 µM ([4]; 500 nM) [%] | remaining activity at 0.5 µM ([5]; 500 nM) [%] | remaining activity at 0.5 µM ([6]; 500 nM) [%] | remaining activity at 0.5 µM ([7]; 500 nM) [%] | remaining activity at 0.5 µM ([8]; 500 nM) [%] | remaining activity at 0.5 µM ([9]; 500 nM) [%] | further results
CCn1cc(-c2ccnc3[nH]c(-c4cccc(CN(C)C)c4)cc23)c(-c2ccc(NC(=O)N(C)C)cc2)n1 [GSK1070916] | 107 | 90 | 93.8 | 97 | 101 | 97.8 | 99.2 | 91.8 | 92.7 | 92.6 | 109 | – | – | – | – | – | – | – | – | – | –
O=C(O)[C@]1(Cc2cccc(Nc3nccs3)n2)CC[C@@H](Oc2cccc(Cl)c2F)CC1 [MK-5108] | 101 | 99.1 | 101 | 106 | 103 | 98.3 | 16.1 | 104 | 13.4 | 99.8 | 105 | 99.5 | 91.2 | 94.1 | 93.4 | 104 | 80.5 | 8.95 | 87 | 4.4 | remaining activity at 0.5 µM ([10]; 500 nM): 97.6%; remaining activity at 0.5 µM ([11]; 500 nM): 82.1%
O=C(c1cccc(Cl)c1F)N1CCN(Cc2cccc(Nc3nccs3)n2)CC1 [MK-8745] | – | – | – | – | – | – | – | – | – | – | – | 105 | 95.8 | 96.3 | 105 | 102 | 91.1 | 91.4 | 101 | 63.4 | % Enzyme Activity (relative to DMSO controls) ([1]; 500 nM): 101.95%; % Enzyme Activity (relative to DMSO controls) ([2]; 500 nM): 93.60%; % Enzyme Activity (relative to DMSO controls) ([3]; 500 nM): 94.45%; % Enzyme Activity (relative to DMSO controls) ([4]; 500 nM): 99.94%; % Enzyme Activity (relative to DMSO controls) ([5]; 500 nM): 99.37%; % Enzyme Activity (relative to DMSO controls) ([6]; 500 nM): 89.30%; % Enzyme Activity (relative to DMSO controls) ([7]; 500 nM): 88.95%; % Enzyme Activity (relative to DMSO controls) ([8]; 500 nM): 100.17%; % Enzyme Activity (relative to DMSO controls) ([9]; 500 nM): 62.60%; % Enzyme Activity (relative to DMSO controls) ([10]; 500 nM): 95.41%; remaining activity at 0.5 µM ([10]; 500 nM): 96.5%; % Enzyme Activity (relative to DMSO controls) ([11]; 500 nM): 81.94%; remaining activity at 0.5 µM ([11]; 500 nM): 87.3%
